Test results reported in article PMC4884413, “In vivo therapeutic efficacy and pharmacokinetics of colistin sulfate in an experimental model of enterotoxigenic Escherichia coli infection in weaned pigs” (Veterinary Research, 2016).
Counter-ions that a name gives are not always drawn. Like-named read-outs stand apart in the source and are kept apart here. Bridge positions count the residues as written; N and C are the ends. Square brackets hold non-standard residues; d marks the D form. Peptide text beside a SMILES is read from it. * marks the point of attachment. X1 = CC[C@H](C)CCCCC(=O)*; Dab = NCC[C@H](N)C(=O)O

What was measured:
ETEC: F4 [1] = test: Fecal ETEC: F4 shedding in challenged weaned pigs; assay type: in vivo
Experimental: (§1) Pigs were selected based on the presence of the F4 receptor gene by PCR–RFLP as previously described at 4 days of age. Two trials of 48 pigs were conducted using different doses of CS [100 000 IU/kg (trial 1) or 50 000 IU/kg (trial 2)]. In each trial, four groups of 12 pigs were constituted: challenged treated, challenged untreated, unchallenged treated, and unchallenged untreated.
(§2) For experimental infection of pigs, a nalidixic acid-resistant (Nal^r) variant of ETEC: F4 strain ECL8559 (O149: LT: STa: STb: East1: paa: hemβ: F4), kindly provided by the E. coli Laboratory as described previously, was used. The strain was passaged in a weaned pig to enhance its pathogenicity. A hemolytic, Nal^r colony isolated from the feces of this pig was confirmed to be positive for O149 and the virulence genes F4, STa, STb, LT by multiplex PCR as previously described. This strain, designated ECL8559A, was used in the experimental challenge in this study. After 1-week of acclimatization, 28-day-old pigs in the challenge groups were orally gavaged with 10^9 CFU of the ETEC: F4 strain in 5 mL of trypticase soy broth (Difco Laboratories, Inc., Detroit, MI, USA) following the administration of 10 mL of CaCO3 to neutralize gastric acid.
(§3) Colistin sulfate (Bond & Beaulac Inc., QC, Canada) was administered by oral gavage in 5 mL of water using a polyethylene tube attached to a syringe, at a dose of 100 000 or 50 000 IU/kg in trials 1 and 2 respectively.
Fresh fecal samples were obtained from pigs using pre-weighed sterile rectal swabs (Puritan Medical Products, Guilford, Maine, USA). Bacteriological examination of fecal samples was performed 1 day before and 1, 2, 3, 5, 6, 7, 8, 10, 13, 20, 27, 36 days after oral challenge to evaluate fecal excretion of the challenge ETEC: F4 strain and total E. coli count. […] Rectal swabs were weighed before and after sampling of pigs for individual fecal material quantification.

total E. coli = test: Fecal total E. coli shedding in weaned pigs; assay type: in vivo
Experimental: as §1, §2, §3
Fresh fecal samples were obtained from pigs using pre-weighed sterile rectal swabs (Puritan Medical Products, Guilford, Maine, USA). Bacteriological examination of fecal samples was performed 1 day before and 1, 2, 3, 5, 6, 7, 8, 10, 13, 20, 27, 36 days after oral challenge to evaluate fecal excretion of the challenge ETEC: F4 strain and total E. coli count. One millilitre of buffered peptone water solution (BPW) was added to each swab and selected dilutions were plated on MacConkey agar and 5% bovine blood agar plates containing nalidixic acid at 50 μg/mL (Sigma-Aldrich Canada Ltd., Oakville, ON, Canada) to count the total E. coli population and the hemolytic challenge ETEC: F4 strain respectively, as previously described. In parallel, 5% bovine blood agar plates containing nalidixic acid at 50 μg/mL and CS at 2 μg/mL and MacConkey agar plates containing CS at 2 μg/mL were used to enumerate the CS resistant hemolytic challenge ETEC: F4 and total E. coli population respectively. The plates were incubated aerobically for 24 h at 37 °C. Isolates recovered from media containing 2 μg/mL of colistin were considered to be putative CS-resistant, as previously described. All samples were processed on the day of collection. Rectal swabs were weighed before and after sampling of pigs for individual fecal material quantification.

ETEC: F4 [2] = test: Diarrhea score (fecal consistency 0-4) in ETEC: F4 challenged weaned pigs; assay type: in vivo; conditions: after 2 days of CS administration (d2), also d3 and d4, both trials, challenged treated vs challenged untreated, p < 0.0001
Text: as §2, with “acid. […]” for “acid.”
After the oral challenge, pigs were observed daily for signs of anorexia, lethargy and diarrhea. The severity of diarrhea was assessed visually by using a fecal consistency scoring (0, normal; 1, soft feces; 2, mild diarrhea; 3, semi liquid diarrhea and 4, liquid diarrhea) as described by Jamalludeen et al.. The rectal body temperature was monitored daily using a digital thermometer.
Ordinal diarrhea scores were analyzed with the Cochran-Mantel-Haenszel test at each time period.

[3] = Body weight of weaned pigs; assay type: in vivo; conditions: both trials, challenged treated compared to challenged untreated pigs
Experimental: Pigs were weighed individually using an electric scale prior to inoculation and at 6, 19 and 35 days after beginning CS treatment.
Bacterial counts and CS plasma concentrations were log10 transformed prior to data analysis to normalize distributions. Total E. coli counts, ETEC: F4 counts, rectal temperature, and body weight were analyzed with repeated-measures ANOVA, with time as a within-subject factor and group as the between-subject factor. A priori contrasts were performed to compare group means at different time periods and to compare pre- and post-infection means in each treatment. For these multiple comparisons, the alpha level was adjusted downward using the Benjamini-Hochberg sequential procedure. A similar procedure was used to analyze CS plasma concentration to determine effect of ETEC: F4 oral challenge on CS intestinal absorption in pigs.

[4] = CS plasma concentrations by HPLC-MS/MS after oral administration; assay type: in vivo, pigs; conditions: both trials
Experimental: as §3
Blood samples (3 mL) were collected using potassium EDTA tubes, from the jugular vein of eight pigs in each treated group, challenged or not of the two trials, at 0.5, 12, 24 and 48 h after the last CS oral administration on day 5.
Plasma was separated by centrifugation at 3000 g for 10 min and stored at −20 °C prior to analysis. These samples were used to determine CS plasma concentrations by high performance HPLC–MS/MS, in order to determine the slope of the terminal phase (λz). The λz was calculated as the negative of the slope of the log-linear regression of the natural logarithm concentration–time curve during the terminal phase. The λz is an important parameter used to determine CS elimination half-life (T1/2), which is an index of drug persistence in the body. Bioanalyses and pharmacokinetic analyses were performed as previously described. The quantification of CS was based on the peak area ratio of the analyte with the internal standard. A calibration curve was used for determining the concentration of CS in all unknown samples by comparing the peak area ratio of the unknown samples to a set of standard samples of known concentration. […]

E. coli K99 = conditions: CS 300 mg/kg of diet, 7 or 14 days, weanling pigs challenged with E. coli K99; cited from earlier work
[5] = intramuscular (IM), pigs, cited from earlier work
Text: In our study, regardless of the dose, CS treatment led to a decrease of nearly 4 log cfu/g in fecal shedding of ETEC: F4 and total E. coli, but only during the treatment period. […] In our study, the effect of CS on the decrease of ETEC: F4 and total E. ...

CC[C@H](C)CCCCC(=O)N[C@@H](CCN)C(=O)N[C@H](C(=O)N[C@@H](CCN)C(=O)N[C@H]1CCNC(=O)[C@H]([C@@H](C)O)NC(=O)[C@H](CCN)NC(=O)[C@H](CCN)NC(=O)[C@H](CC(C)C)NC(=O)[C@@H](CC(C)C)NC(=O)[C@H](CCN)NC1=O)[C@@H](C)O [Colistin sulfate] (X1-[Dab]T[Dab][Dab][Dab][dL]L[Dab][Dab]T; lactam 4-C)
fecal ETEC: F4 shedding (ETEC: F4 [1]; both trials (100 000 or 50 000 IU/kg oral, twice daily, 5 days), between d2 and d6, treated vs untreated challenged pigs, p < 0.0001): significant reduction | levels of ETEC: F4 in feces (ETEC: F4 [1]; both trials, most pigs, between d4 and d6): dropped below our detection limit | decrease in fecal shedding of ETEC: F4 (ETEC: F4 [1]; regardless of the dose, only during the treatment period): ~4 log cfu/g | fecal total E. coli shedding (total E. coli; trial 1, 100 000 IU/kg oral twice daily 5 days, d1 to d5, challenged treated vs challenged untreated, p < 0.0001): significant reduction | fecal total E. coli shedding (total E. coli; trial 1, 100 000 IU/kg, d2 to d6, unchallenged treated vs unchallenged untreated, p < 0.0001): significant reduction | fecal total E. coli shedding (total E. coli; trial 2, 50 000 IU/kg oral twice daily 5 days, d1 to d6, challenged treated vs challenged untreated, p < 0.0007): significant reduction | fecal total E. coli shedding (total E. coli; trial 2, 50 000 IU/kg, d2 to d5, unchallenged treated vs unchallenged untreated, p < 0.0001): significant reduction | diarrhea scores (ETEC: F4 [2]): significantly decreased | pig weight losses [3]: did not prevent pig weight losses | plasma concentrations ([4]; 48 h following the last CS administration, LLOQ 1 ng/mL of plasma): below the LLOQ | CS plasma concentrations, challenged treated compared to unchallenged treated groups ([4]; all sampling times): higher | reduction of the number of E. coli in cecal digesta (E. coli K99): 4.38 log cfu/g | reduction of the number of E. coli in ileal digesta (E. coli K99): 5.30 log cfu/g | systemic bioavailability ([5]; 2.5 mg/kg bw): 95.94% | systemic bioavailability ([5]; 5 mg/kg bw): 88.45%
